According to PubChem BioAssay AID1159612:
The source made the active and inactive calls.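 The calls were made as follows: active = compounds displacing the labeled ligand from RAR alpha with half-maximal potency at 10 µM or stronger; inactive = the rest.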

Target: Retinoic acid receptor alpha (Homo sapiens) (UniProt P10276)
Test: ligand displacement at retinoic acid receptor alpha – biochemical, [3H]9-cis-retinoic acid, RARalpha, dose response (AID 1159612)
Conditions: RARalpha radioligand binding, [3H]9-cis-RA displacement

Chain of Retinoic acid receptor alpha (Homo sapiens) (P10276 whole entry, looked up): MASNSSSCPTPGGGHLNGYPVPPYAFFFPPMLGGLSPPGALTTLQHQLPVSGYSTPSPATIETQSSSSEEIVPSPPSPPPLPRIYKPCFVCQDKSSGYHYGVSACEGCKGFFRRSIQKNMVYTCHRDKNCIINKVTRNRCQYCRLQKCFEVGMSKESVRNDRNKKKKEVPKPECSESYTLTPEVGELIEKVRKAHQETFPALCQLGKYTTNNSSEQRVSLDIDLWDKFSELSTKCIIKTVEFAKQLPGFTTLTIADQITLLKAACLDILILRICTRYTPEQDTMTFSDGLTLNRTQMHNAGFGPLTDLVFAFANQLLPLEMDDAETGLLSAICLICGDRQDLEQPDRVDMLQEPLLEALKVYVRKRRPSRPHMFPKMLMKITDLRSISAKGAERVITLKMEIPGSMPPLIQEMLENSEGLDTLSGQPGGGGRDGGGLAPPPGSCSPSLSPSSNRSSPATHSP

With `CC1=C[C@H](O)CC(C)(C)[C@H]1/C=C/C(C)=C/C=C/C(C)=C/C=C/C=C(C)/C=C/C=C(C)/C=C/C1=C(C)C[C@@H](O)CC1(C)C` the IC50 was “inactive”.
